# Experimental data taken from ChEMBL document CHEMBL1201862, “PubChem BioAssay data set” (2004).
# The source made the active and inactive calls.
# What was measured:
# [1] = Luminescence Cell-Based Dose Response HTS to Identify Inhibitors of 5'UTR Stem-Loop Driven Prion Protein mRNA Translation in H4 Neuroglioblastoma Cells. [Related pubchem assays: 1827 (Project Summary), 1813 (Primary HTS)]; type: functional
# [2] = Luminescence Cell-Based Dose Retest to Confirm Inhibitors of Cancer Stem Cells. [Related pubchem assays (depositor defined):AID2717, AID2721]; type: functional; conditions: Homo sapiens
# Beta Lactamase = Beta Lactamase (Pseudomonas aeruginosa, UniProt Q932Y6); test: beta-lactamase reporter inhibitor potency, dose response, artefact control for TLR9-MyD88 binding inhibitor project, BLA reporter cells, FRET fluorescence (AID 588341); type: cell-based;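 note: cell based assay in CHO-K1 cells stably expressing beta-lactamase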
# [3] = inhibitors of SNCA 5'UTR-driven reporter translation, confirmation, H4 neuroglioma cells, luminescence (AID 1988); type: functional, cell-based
# INS1 = test: beta cell apoptosis inhibitors, cytokine rescue, dose response, luminescence, retest (AID 449756); type: functional, cell-based; conditions: Rattus norvegicus;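 note: cell death triggered by IL-1 beta plus TNF-alpha plus IFN-gamma mixture; protective hits raise ATP signal compared with cytokine alone wells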
# [4] = Shn3 3'UTR reporter inhibitors, dose response, cell-based, Clone20 osteoblasts, firefly luciferase, cherry-picked (AID 624132); type: functional;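 note: firefly luciferase luminescence from reporter carrying the Shn3 3'UTR in osteoblasts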
# Beta-galactosidase = Beta-galactosidase (Escherichia coli, UniProt Q8VNN2); test: PubChem AID 485352; type: functional
# [5] = HepG2 cell cytotoxicity, dose response, cytotoxicity control for Shn3 inhibitor project, CellTiter-Glo, cherry-picked (AID 624134); type: functional, cell-based
# [6] = target: Heat shock protein HSP 90-alpha (Homo sapiens, UniProt P07900); type: functional, organism-based
# [7] = control 3'UTR Renilla luciferase suppression, dose response, counter-screen for Shn3 inhibitor project, cell-based, Clone20-Shn3RL, cherry-picked (AID 624133); type: functional
# [8] = target: T1, Type-1 angiotensin II receptor (Homo sapiens, UniProt P30556); test: AT1 receptor antagonists, dose response, selectivity assay for APJ receptor antagonist project, cell-based, uHTS hits (AID 463214); type: functional;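 note: antagonist potency against angiotensin II stimulated AT1 response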
# T1 sequence (P30556 whole entry): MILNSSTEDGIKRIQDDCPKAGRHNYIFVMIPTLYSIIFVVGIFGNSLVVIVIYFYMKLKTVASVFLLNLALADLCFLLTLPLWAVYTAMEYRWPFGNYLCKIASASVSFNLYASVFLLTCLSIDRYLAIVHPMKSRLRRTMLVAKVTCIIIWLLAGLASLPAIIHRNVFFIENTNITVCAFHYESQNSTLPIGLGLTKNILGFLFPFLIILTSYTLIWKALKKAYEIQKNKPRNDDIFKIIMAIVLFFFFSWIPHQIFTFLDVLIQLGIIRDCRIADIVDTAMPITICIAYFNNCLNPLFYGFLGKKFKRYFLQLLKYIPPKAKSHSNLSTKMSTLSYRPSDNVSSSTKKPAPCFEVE
# CHO = test: cytotoxicity in TLR9-MyD88 CHO cells, dose response, cytotoxicity control for TLR9-MyD88 binding inhibitor project, cell-based, luminescence (AID 588339); type: functional, hamster; conditions: Cricetulus griseus;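 note: CHO cells stably coexpressing TLR9 and MyD88 fusions from primary screen; compound exposure lasted 48 hours before viability readout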
# [9] = inhibitors of firefly luciferase expression or activity, dose response, H4 neuroglioma cells, luminescence (AID 1990); type: functional, cell-based
# MEF = test: SAR analysis of small molecule cytotoxicity of MazEF TA System activators in embryonic fibroblast (MEF) cells. [Related pubchem assays (depositor defined):AID504720, AID504743]; type: functional; conditions: Mus musculus
# [10] = target: T2, Endoribonuclease toxin MazF (Escherichia coli K-12, UniProt P0AE70); test: fluorescent RNA oligo signal without MazF, dose response, counter-screen for MazEF activator project, biochemical, fluorescence, single-stranded RNase substrate (AID 588502); type: functional
# T2 sequence (P0AE70 whole entry): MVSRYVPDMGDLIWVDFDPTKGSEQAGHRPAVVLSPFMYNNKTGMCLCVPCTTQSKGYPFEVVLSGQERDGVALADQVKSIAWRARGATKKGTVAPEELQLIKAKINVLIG
# [11] = target: T2, Endoribonuclease toxin MazF; test: MazF toxin RNase activators, dose response, biochemical, fluorescence, single-stranded RNA substrate, uHTS hits (AID 588481); type: functional
# [12] = target: T2, Endoribonuclease toxin MazF; test: MazF endoribonuclease activators, SAR follow-up, biochemical, fluorescence, single-stranded RNA substrate (AID 588603); type: functional
# [13] = target: T2, Endoribonuclease toxin MazF; test: SAR analysis of small molecule activators of the MazEF TA System via a fluorescence-based single-stranded RNase assay counterscreen. [Related pubchem assays (depositor defined):AID504720, AID504743]; type: functional
# Beta Lactamase, sequence (Q932Y6 whole entry): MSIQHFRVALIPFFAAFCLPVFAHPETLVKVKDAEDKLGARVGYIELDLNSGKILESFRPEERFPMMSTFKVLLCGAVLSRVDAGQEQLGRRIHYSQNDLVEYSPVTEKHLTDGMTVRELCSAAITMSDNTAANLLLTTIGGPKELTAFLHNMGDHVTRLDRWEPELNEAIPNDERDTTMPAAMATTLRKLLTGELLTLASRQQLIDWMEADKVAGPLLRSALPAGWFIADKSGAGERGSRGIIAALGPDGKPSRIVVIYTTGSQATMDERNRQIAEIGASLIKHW
# Beta-galactosidase, sequence (Q8VNN2 whole entry): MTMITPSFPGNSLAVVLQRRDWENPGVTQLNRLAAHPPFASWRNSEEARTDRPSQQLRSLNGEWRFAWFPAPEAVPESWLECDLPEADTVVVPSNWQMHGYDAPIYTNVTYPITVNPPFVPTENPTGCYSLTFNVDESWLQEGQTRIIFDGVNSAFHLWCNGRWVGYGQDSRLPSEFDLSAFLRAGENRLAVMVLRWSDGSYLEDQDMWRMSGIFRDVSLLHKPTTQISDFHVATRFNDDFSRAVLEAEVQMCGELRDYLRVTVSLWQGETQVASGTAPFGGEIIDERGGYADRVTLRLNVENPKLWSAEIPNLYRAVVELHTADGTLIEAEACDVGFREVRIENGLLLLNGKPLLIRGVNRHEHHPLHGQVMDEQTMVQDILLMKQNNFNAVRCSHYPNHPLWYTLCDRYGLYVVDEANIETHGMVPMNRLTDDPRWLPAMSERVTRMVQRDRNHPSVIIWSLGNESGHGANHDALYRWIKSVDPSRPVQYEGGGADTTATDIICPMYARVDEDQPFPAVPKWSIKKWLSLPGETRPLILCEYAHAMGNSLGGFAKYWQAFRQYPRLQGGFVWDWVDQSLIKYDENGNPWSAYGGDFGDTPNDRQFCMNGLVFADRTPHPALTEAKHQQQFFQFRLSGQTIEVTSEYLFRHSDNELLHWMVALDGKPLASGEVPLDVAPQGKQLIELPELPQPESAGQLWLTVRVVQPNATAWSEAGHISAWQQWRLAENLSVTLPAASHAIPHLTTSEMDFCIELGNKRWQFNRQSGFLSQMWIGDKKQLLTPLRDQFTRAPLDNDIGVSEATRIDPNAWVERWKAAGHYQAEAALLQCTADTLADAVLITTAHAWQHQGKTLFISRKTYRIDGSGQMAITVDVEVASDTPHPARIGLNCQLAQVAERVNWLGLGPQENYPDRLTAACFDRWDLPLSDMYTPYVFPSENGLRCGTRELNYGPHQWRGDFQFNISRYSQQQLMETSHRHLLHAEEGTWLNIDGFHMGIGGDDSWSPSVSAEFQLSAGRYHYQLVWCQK
Compound,EC50 [1],AC50 [2],IC50 (Beta Lactamase),EC50 [3],AC50 (INS1),AC50 [4],EC50 (Beta-galactosidase),AC50 [5],AC50 [6],AC50 [7],IC50 [8],IC50 (CHO),EC50 [9],CC50 (MEF),EC50 [10],EC50 [11],EC50 [12],EC50 [13]
COc1ccc(OC)c(NC(=O)c2nc(S(=O)(=O)Cc3ccccc3)ncc2Cl)c1,> 120 µM (not active),3.48 µM (active),6.72 µM (active),11.6 µM (active),5.38 µM (active),2.08 µM (active),> 40 µM (inactive),13.7 µM (active),2.95 µM (active),3.79 µM (active),5.87 µM (active),1.05 µM (active),12.2 µM (active),–,–,–,–,–
Cc1ccc2nc(NCCc3ccc(Cl)cc3)c3nncn3c2c1,–,–,–,–,–,–,–,–,–,–,–,–,–,> 99 µM (inactive),> 99 µM (inactive),33.1 µM (inactive),17.7 µM (active),> 99 µM (inactive)
